Data reported in DBAASP.
≈ marks a conversion by molar mass, not a printed value. Where “and” joins values, the source holds several entries; their conditions need not be identical. Equal entries are not always repeated. Values belong to the molecule of their own block, whether it stands above or below them.

Key:
Assay in all cases: ≥ marks a high value that may be exact or a test limit, other limits are often not marked, values filed in µg/mL are converted to µM
Escherichia coli JW0013 = tested on: Escherichia coli JW0013
[1] = tested on: Salmonella typhimurium SL1344
[2] = tested on: Salmonella enterica subsp. enterica serovar Enteritidis MH91989
Escherichia coli O157:H7 = tested on: Escherichia coli O157:H7
Escherichia coli J2210 = tested on: Escherichia coli J2210
Escherichia coli JJ2487 = tested on: Escherichia coli JJ2487
Escherichia coli MC1061 = tested on: Escherichia coli MC1061
[3] = tested on: Pseudomonas aeruginosa ATCC 27853
[4] = tested on: Candida parapsilosis CGMCC 2.3989
[5] = tested on: Candida tropicalis CGMCC 2.1975
Escherichia coli 078 = tested on: Escherichia coli 078
[6] = tested on: Staphylococcus aureus ATCC 25923
Escherichia coli UB1005 = tested on: Escherichia coli UB1005
Escherichia coli K88 = tested on: Escherichia coli K88
[7] = tested on: Salmonella enterica subsp. enterica serovar Pullorum ATCC 7913
[8] = tested on: Staphylococcus aureus ATCC 43300
[9] = tested on: Salmonella enterica subsp. enterica serovar Typhimurium C77-31
[10] = tested on: Staphylococcus epidermidis ATCC 12228
[11] = tested on: Salmonella enterica subsp. enterica serovar Typhimurium ATCC 14028
[12] = tested on: Candida albicans CGMCC 2.2086
Escherichia coli K99 = tested on: Escherichia coli K99
Escherichia coli JJ2489 = tested on: Escherichia coli JJ2489
[13] = tested on: Salmonella enterica subsp. enterica serovar Infantis
[14] = tested on: Escherichia coli JW0368 ΔsbmA
Escherichia coli MC1041 = tested on: Escherichia coli MC1041
[15] = tested on: Salmonella enterica subsp. enterica serovar Newport
Escherichia coli = tested on: Escherichia coli
[16] = tested on: Escherichia coli JW2778 ΔygdD
[17] = tested on: Salmonella enterica serovar Tennessee
[18] = tested on: Staphylococcus epidermidis C621
[19] = tested on: Pseudomonas aeruginosa Z61
[20] = tested on: Escherichia coli CGSC 4908
Candida albicans C627 = tested on: Candida albicans C627
[21] = tested on: Salmonella enterica subsp. enterica serovar Typhimurium ATCC 14028s
[22] = tested on: Salmonella enterica serovar typhimurium MS7953s
[23] = tested on: Aeromonas salmonicida 99-1
Escherichia coli DC2 = tested on: Escherichia coli DC2
[24] = tested on: Aeromonas salmonicida 97-4
[25] = tested on: Pseudomonas aeruginosa K799
[26] = tested on: Staphylococcus aureus C623
Escherichia coli INV-a = tested on: Escherichia coli INV-a
[27] = tested on: Lactococcus lactis MG1363

Compound: CC[C@H](C)[C@H](NC(=O)[C@H](CCCN=C(N)N)NC(=O)[C@H](C)NC(=O)[C@H](C)N)C(=O)N[C@H](C(=O)N[C@@H](CC(C)C)C(=O)N[C@@H](CCCN=C(N)N)C(=O)NCC(=O)N[C@@H](CCCN=C(N)N)C(=O)N[C@@H](Cc1ccccc1)C(=O)N[C@@H](CCCN=C(N)N)C(N)=O)[C@@H](C)CC [AARIILRGRFR]
- MIC [3]: 16 µM (≈ 21.2 µg/mL)
- MIC [4]: ≥ 64 µM
- MIC [5]: 16 µM (≈ 21.2 µg/mL)
- MIC (Escherichia coli 078): 4 µM (≈ 5.31 µg/mL)
- MIC [6]: 16 µM (≈ 21.2 µg/mL)
- MIC (Escherichia coli UB1005): 4 µM (≈ 5.31 µg/mL)
- MIC (Escherichia coli K88): 2 µM (≈ 2.66 µg/mL)
- MIC [7]: 4 µM (≈ 5.31 µg/mL)
- MIC [8]: 8 µM (≈ 10.6 µg/mL)
- MIC [9]: 8 µM (≈ 10.6 µg/mL)
- MIC [10]: 8 µM (≈ 10.6 µg/mL)
- MIC [11]: 4 µM (≈ 5.31 µg/mL)
- MIC [12]: ≥ 128 µM
- MIC (Escherichia coli K99): 2 µM (≈ 2.66 µg/mL)

Compound: CC[C@H](C)[C@H](NC(=O)CNC(=O)[C@H](Cc1cnc[nH]1)NC(=O)[C@H](CC(C)C)NC(=O)CNC(=O)[C@H](CC(C)C)NC(=O)[C@H](CCCCN)NC(=O)[C@H](Cc1ccccc1)NC(=O)[C@H](CC(C)C)NC(=O)[C@H](CCCCN)NC(=O)CNC(=O)[C@H](Cc1c[nH]c2ccccc12)NC(=O)[C@H](Cc1ccccc1)NC(=O)CN)C(=O)NCC(=O)N[C@@H](CC(C)C)C(=O)N[C@@H](CC(C)C)C(=O)N[C@@H](Cc1cnc[nH]1)C(=O)N[C@@H](CC(C)C)C(=O)N[C@@H](Cc1cnc[nH]1)C(=O)N[C@@H](CC(C)C)C(C)=O [GFWGKLFKLGLHGIGLLHLHL]
- MIC [18]: 1.7 µM (≈ 4 µg/mL)
- MIC [19]: 1.7 µM (≈ 4 µg/mL)
- MIC (Escherichia coli UB1005): 3.39 µM (≈ 7.99 µg/mL)
- MIC [20]: 3.39 µM (≈ 7.99 µg/mL)
- MIC (Candida albicans C627): 6.79 µM (≈ 16 µg/mL)
- MIC [21]: 6.79 µM (≈ 16 µg/mL)
- MIC [22]: 1.7 µM (≈ 4 µg/mL)
- MIC [23]: 3.39 µM (≈ 7.99 µg/mL)
- MIC (Escherichia coli DC2): 3.39 µM (≈ 7.99 µg/mL)
- MIC [24]: 6.79 µM (≈ 16 µg/mL)
- MIC [25]: 3.39 µM (≈ 7.99 µg/mL)
- MIC [26]: 1.7 µM (≈ 4 µg/mL)

Compound: CC[C@H](C)[C@H](N)C(=O)N[C@@H](CC(N)=O)C(=O)N[C@@H](Cc1c[nH]c2ccccc12)C(=O)N[C@@H](CCCCN)C(=O)NCC(=O)N[C@H](C(=O)N[C@@H](C)C(=O)N[C@@H](CC(C)C)C(=O)N[C@@H](CCSC)C(=O)N[C@@H](C)C(=O)N[C@@H](CCCCN)C(=O)N[C@@H](CCCCN)C(=O)N[C@@H](CC(C)C)C(=O)N[C@@H](CC(C)C)C(N)=O)[C@@H](C)CC [INWKGIALMAKKLL]
- MIC (Escherichia coli INV-a): 7 µM (≈ 11.2 µg/mL)
- MIC [27]: 2.5 µM (≈ 4 µg/mL)

Further lines, results first:

- MIC (Escherichia coli JW0013): 0.173 µM (≈ 0.42 µg/mL)
- MIC [1]: 0.173 µM (≈ 0.42 µg/mL)
- MIC [2]: 0.246 µM (≈ 0.6 µg/mL)
- MIC (Escherichia coli O157:H7): 0.986 µM (≈ 2.4 µg/mL)
- MIC (Escherichia coli J2210): 0.16 µM (≈ 0.39 µg/mL)
- MIC (Escherichia coli JJ2487): 0.16 µM (≈ 0.39 µg/mL)
- MIC (Escherichia coli MC1061): 0.0822 µM (≈ 0.2 µg/mL)
Compound: CC[C@H](C)[C@H](NC(=O)[C@H](CCCN=C(N)N)NC(=O)[C@H](CCCN=C(N)N)NC(=O)[C@@H]1CCCN1C(=O)[C@@H]1CCCN1C(=O)[C@H](CCCN=C(N)N)NC(=O)[C@@H]1CCCN1C(=O)[C@H](CCCN=C(N)N)NC(=O)[C@@H]1CCCN1C(=O)[C@H](CCCN=C(N)N)NC(=O)[C@H](Cc1ccc(O)cc1)NC(=O)[C@@H]1CCCN1C(=O)[C@@H]1CCCN1C(=O)[C@H](CCCCN)NC(=O)[C@H](CC(=O)O)NC(=O)[C@@H](N)C(C)C)C(=O)N[C@@H](Cc1ccc(O)cc1)C(=O)N[C@@H](CC(N)=O)C(=O)N[C@@H](CCCN=C(N)N)C(N)=O [VDKPPYRPRPRPPRRIYNR]

- MIC (Escherichia coli JJ2489): 0.078 µM (≈ 0.184 µg/mL)
- MIC [13]: 0.098 µM (≈ 0.231 µg/mL)
- MIC [14]: 0.3 µM (≈ 0.707 µg/mL)
- MIC (Escherichia coli MC1041): 0.075 µM (≈ 0.177 µg/mL)
- MIC (Escherichia coli JW0013): 0.037 µM (≈ 0.0872 µg/mL)
- MIC [1]: 0.075 µM (≈ 0.177 µg/mL)
- MIC [2]: 0.15 µM (≈ 0.353 µg/mL)
- MIC [15]: 0.037 µM (≈ 0.0872 µg/mL)
- MIC (Escherichia coli): 0.15 µM and 0.208 µM
- MIC [16]: 0.104 µM (≈ 0.245 µg/mL)
- MIC (Escherichia coli J2210): 0.075 µM (≈ 0.177 µg/mL)
- MIC [17]: 0.075 µM (≈ 0.177 µg/mL)
Compound: CC[C@H](C)[C@H](NC(=O)[C@@H]1CCCN1C(=O)[C@H](CCCCN)NC(=O)[C@@H]1CCCN1C(=O)[C@@H]1CCCN1C(=O)[C@@H](NC(=O)[C@@H]1CCCN1C(=O)[C@H](CCCN=C(N)N)NC(=O)[C@@H]1CCCN1C(=O)[C@H](CCCN=C(N)N)NC(=O)[C@H](Cc1ccc(O)cc1)NC(=O)[C@H](CO)NC(=O)CNC(=O)[C@H](CCCCN)NC(=O)[C@H](CC(=O)O)NC(=O)[C@@H](N)C(C)C)[C@@H](C)O)C(=O)N[C@@H](Cc1ccc(O)cc1)C(=O)N[C@@H](CC(N)=O)C(=O)N[C@@H](CCCN=C(N)N)C(=O)N[C@@H](CC(N)=O)C(=O)O [VDKGSYRPRPTPPKPIYNRN]
